Measurements from PubChem BioAssay (NCI).
Where “and” joins values, the source holds several entries; their conditions need not be identical. Equal entries are not always repeated.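 Exposure lasted 48 hours, with cells grown in 96-well plates and compounds tested at five concentrations. GI50 marks 50% less growth. The concentration for full growth arrest is given as TGI.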

Tests used:
Experiment in all cases: DTP human tumour cell line panel, 48 h
KM12 colon = tested on: KM12 colon
SK-MEL-28 melanoma = tested on: SK-MEL-28 melanoma
SK-MEL-5 melanoma = tested on: SK-MEL-5 melanoma
K-562 leukemia = tested on: K-562 leukemia
HCC-2998 colon = tested on: HCC-2998 colon
NCI-H226 lung = tested on: NCI-H226 lung
HS 578T breast = tested on: HS 578T breast
SF-268 CNS = tested on: SF-268 CNS
ACHN renal = tested on: ACHN renal
A549 NSCLC = tested on: A549 NSCLC

SMILES	GI50 (KM12 colon)	TGI (KM12 colon)	GI50 (SK-MEL-28 melanoma)	TGI (SK-MEL-28 melanoma)	GI50 (SK-MEL-5 melanoma)	TGI (SK-MEL-5 melanoma)	GI50 (K-562 leukemia)	TGI (K-562 leukemia)	GI50 (HCC-2998 colon)	TGI (HCC-2998 colon)	GI50 (NCI-H226 lung)	TGI (NCI-H226 lung)	GI50 (HS 578T breast)	TGI (HS 578T breast)	GI50 (SF-268 CNS)	TGI (SF-268 CNS)	GI50 (ACHN renal)	TGI (ACHN renal)	GI50 (A549 NSCLC)	TGI (A549 NSCLC)
O=C(/C=C/C12c3ccccc3C(c3ccccc31)C1C(=O)NC(=O)C12)c1ccc(F)cc1 (centres undefined)	1.78 µM	3.43 µM	1.85 µM	3.39 µM	1.72 µM	3.16 µM	1.42 µM	4.75 µM	1.62 µM	3.1 µM	2.74 µM	9.51 µM	2.28 µM	7.84 µM	1.65 µM	3.2 µM	2.43 µM	6.18 µM	2.39 µM	7.01 µM
O=[N+]([O-])c1cc(C(F)(F)F)ccc1Sc1ccc(C(F)(F)F)cc1[N+](=O)[O-]	5.24 µM	> 100 µM	13.2 µM	> 100 µM	16.7 µM	> 100 µM	3.49 µM	> 100 µM	19.7 µM	> 100 µM	> 100 µM	> 100 µM	18.6 µM	> 100 µM	7.07 µM	> 100 µM	49.4 µM	> 100 µM	24.9 µM	> 100 µM
CCOC(=O)C1=C(C)N(Cc2ccc(Cl)cc2Cl)C2(O)C=CC(=O)C3=C(O)c4ccccc4C(=O)C312 (centres undefined)	4.02 µM	16.8 µM	10.6 µM	40.1 µM	7.38 µM	23.3 µM	4.85 µM	> 100 µM	11.2 µM	28.2 µM	3.77 µM	27.8 µM	16.1 µM	96.3 µM	6.72 µM	37.5 µM	3.82 µM	18.2 µM	9.35 µM	> 100 µM
CCOC(=O)c1cc(-c2ccccc2)[nH]c1N/N=C/c1ccc(Cl)cc1	> 100 µM	> 100 µM	> 100 µM	> 100 µM	28.4 µM	> 100 µM	28.4 µM	> 100 µM	54.7 µM	> 100 µM	> 100 µM	> 100 µM	77.7 µM	> 100 µM	> 100 µM	> 100 µM	> 100 µM	> 100 µM	81.5 µM	> 100 µM
CCCCCCCCCCCCCCCCCCOCC(CCP(=O)(CP(=O)(O)O)Oc1ccccc1)OCCCCCCCCCCCCCCCCCC (centres undefined)		> 100 µM		> 100 µM		> 100 µM		> 100 µM		> 100 µM		> 100 µM		> 100 µM		> 100 µM		> 100 µM		> 100 µM
CSC(=S)OC1CC(n2cnc3c(NC(=O)c4ccccc4)ncnc32)OC1CO[Si](C)(C)C(C)(C)C (centres undefined)		41.6 µM		> 46.4 µM		18.3 µM		> 49.5 µM		> 31.6 µM		> 56.2 µM		> 56.2 µM		> 56.2 µM		> 56.2 µM		> 100 µM
CC(=O)O[C@H]1[C@@H]2OC(=O)C(CSc3ccccc3)[C@@H]2C[C@H]2O[C@]2(C)CC/C=C(\C)CCC[C@@H]1C (some centres undefined)	3.58 µM	14 µM	1.91 µM	3.93 µM	2.57 µM	8.65 µM	2.15 µM	> 24.6 µM	4.7 µM	16.3 µM	4.69 µM	18 µM	2.79 µM	10.2 µM	3.51 µM	13.3 µM	1.8 µM	3.82 µM	4.34 µM	21.4 µM
N#Cc1cc(S(=O)(=O)Nc2nnc(-c3ccccc3)c(-c3ccccc3)n2)c(SCc2ccccc2)cc1Cl	19.2 µM	42.5 µM	35.2 µM	91.3 µM	23 µM	51.4 µM	27.2 µM	> 100 µM	> 100 µM	> 100 µM	27.6 µM	70.7 µM	22.4 µM	63.3 µM	29.2 µM	> 100 µM	21.5 µM	42.6 µM	22.2 µM	40.7 µM
CCc1ccc(C(=Nc2ccc(N(C)C(=O)CN3CCN(C)CC3)cc2)c2c(O)[nH]c3ccc(C(=O)OC)cc23)cc1	0.0387 µM	1.4 µM	1.17 µM	2.42 µM	1.2 µM	2.47 µM	0.073 µM	1.12 µM	0.587 µM	1.95 µM	0.977 µM	2.71 µM	0.169 µM	1.1 µM	1.18 µM	2.8 µM	0.332 µM	1.43 µM	0.319 µM	1.64 µM
O=C(Nc1cccc(Cl)c1)c1cccc(NC2=C(Cl)C(=O)N(Cc3ccccc3)C2=O)c1	28.2 µM	80.4 µM	> 100 µM	> 100 µM	34 µM	> 100 µM	0.662 µM	35.5 µM	19.8 µM	62.4 µM	22.4 µM	> 100 µM	> 100 µM	> 100 µM	25.5 µM	94.4 µM	87.4 µM	> 100 µM	> 100 µM	> 100 µM
[N-]=[N+]=NCCCn1c2c(c3ccc([N+](=O)[O-])cc3c1=O)C(=O)c1cc(F)ccc1-2	2.13 µM	> 26.2 µM	11.9 µM	> 100 µM	0.803 µM	3.16 µM	1.25 µM	> 100 µM	14.5 µM	> 100 µM	2.26 µM	> 46.8 µM	36.5 µM	> 100 µM		4.32 µM	0.269 µM	1.55 µM	5.14 µM	> 100 µM
Cc1ccc(NS(=O)(=O)c2cccc(C#N)c2)c2[nH]cc(C#N)c12	> 51.5 µM and 23.2 µM	> 100 µM	20.2 µM and 7.55 µM	98.5 µM and > 44.9 µM	15.6 µM and 17 µM	33.5 µM and 43.3 µM	2.59 µM and 5.08 µM	> 100 µM	25.1 µM	> 100 µM	22.5 µM and 25.5 µM	> 96.4 µM	16.4 µM and 20 µM	78.8 µM and > 96.3 µM	35 µM and 30.9 µM	> 100 µM	12.6 µM and 16.3 µM	> 96.7 µM and 98.3 µM	17.9 µM and 12.7 µM	> 100 µM
C/C(=C\c1cc(C(F)(F)F)n(-c2ccc(N)cc2)n1)[C@@H]1C[C@@H]2O[C@]2(C)CCC[C@H](C)[C@H](O)[C@@H](C)C(=O)C(C)(C)[C@@H](O)CC(=O)O1	0.00522 µM	> 11.1 µM	0.547 µM	> 11.1 µM	0.0235 µM	> 3.71 µM	0.0203 µM	> 11.1 µM	0.0244 µM	1.39 µM	0.956 µM	> 11.1 µM	0.0287 µM	0.627 µM	0.0502 µM	> 11.1 µM	0.0822 µM	> 11.1 µM	0.0489 µM	> 11.1 µM
